Measurements: BindingDB's records for doi:10.1080/14756360802188420 (Bahauddin Zakariya University, 2009)

Molecular target: Urease (Canavalia ensiformis, UniProt P07374)
Assay: Inhibition Assay
Text: Inhibition assay using urease from jack bean.

Sequence of Urease (P07374 whole entry): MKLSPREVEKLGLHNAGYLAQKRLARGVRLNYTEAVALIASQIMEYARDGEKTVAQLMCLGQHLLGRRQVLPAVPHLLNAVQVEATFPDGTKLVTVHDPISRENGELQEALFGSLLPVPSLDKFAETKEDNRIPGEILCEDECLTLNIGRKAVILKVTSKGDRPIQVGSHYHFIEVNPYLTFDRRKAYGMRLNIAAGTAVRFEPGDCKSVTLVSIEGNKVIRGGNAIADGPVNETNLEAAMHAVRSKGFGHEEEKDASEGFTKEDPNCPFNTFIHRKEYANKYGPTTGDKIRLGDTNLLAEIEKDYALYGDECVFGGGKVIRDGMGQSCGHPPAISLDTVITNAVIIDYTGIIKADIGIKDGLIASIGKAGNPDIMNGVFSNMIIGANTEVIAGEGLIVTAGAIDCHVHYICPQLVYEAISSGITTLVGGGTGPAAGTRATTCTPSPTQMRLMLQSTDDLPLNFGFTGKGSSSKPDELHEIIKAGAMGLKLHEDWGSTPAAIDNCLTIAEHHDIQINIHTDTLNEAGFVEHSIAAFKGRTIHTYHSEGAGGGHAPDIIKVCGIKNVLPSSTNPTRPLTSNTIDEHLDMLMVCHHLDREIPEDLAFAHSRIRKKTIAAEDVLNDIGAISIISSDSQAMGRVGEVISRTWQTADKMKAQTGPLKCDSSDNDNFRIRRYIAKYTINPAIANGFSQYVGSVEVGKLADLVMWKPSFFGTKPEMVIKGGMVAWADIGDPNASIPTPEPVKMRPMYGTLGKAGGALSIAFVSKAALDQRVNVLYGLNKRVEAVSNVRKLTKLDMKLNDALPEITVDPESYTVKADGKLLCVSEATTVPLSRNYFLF

## O=C1Nc2ccccc2/C1=N/NC(=S)Nc1c(Cl)cc(Cl)cc1Cl [Thiosemicarbazone, 2l]
  IC50: 28.6 µM
